Laboratory results as given in ChEMBL document CHEMBL1201862, “PubChem BioAssay data set” (2004).
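Cells were grown in 96-well plates and exposed to each compound for 48 hours at five concentrations; endpoints were interpolated linearly between bracketing concentrations, or set to the highest concentration if not reached. GI50 = concentration required for 50% inhibition of growth.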 Calls of active or inactive are those of the source. Rule as the data show it: active = GI50 up to about 1.1 µM and inactive = higher.

Assays:
Test in all cases: NCI anticancer screen, dose series, 48 h
SF-268 = tested on: SF-268
EKVX = tested on: EKVX
HCT-116 = tested on: HCT-116
K562 = tested on: K562
Hs-578T = tested on: Hs-578T
NCI-H23 = tested on: NCI-H23
BT-549 = tested on: BT-549
IGROV-1 = tested on: IGROV-1
786-0 = tested on: 786-0
NCI-H522 = tested on: NCI-H522
OVCAR-3 = tested on: OVCAR-3
HT-29 = tested on: HT-29
HOP-62 = tested on: HOP-62
SK-MEL-2 = tested on: SK-MEL-2
UO-31 = tested on: UO-31
NCI-H460 = tested on: NCI-H460
UACC-257 = tested on: UACC-257
PC-3 = tested on: PC-3
SR = tested on: SR
UACC-62 = tested on: UACC-62

Compound | GI50 (SF-268) | GI50 (EKVX) | GI50 (HCT-116) | GI50 (K562) | GI50 (Hs-578T) | GI50 (NCI-H23) | GI50 (BT-549) | GI50 (IGROV-1) | GI50 (786-0) | GI50 (NCI-H522) | GI50 (OVCAR-3) | GI50 (HT-29) | GI50 (HOP-62) | GI50 (SK-MEL-2) | GI50 (UO-31) | GI50 (NCI-H460) | GI50 (UACC-257) | GI50 (PC-3) | GI50 (SR) | GI50 (UACC-62)
O=C(/C=C/c1ccc([N+](=O)[O-])cc1)N1CCN(CCOC(c2ccc(F)cc2)c2ccc(F)cc2)CC1 | > 100 µM (inactive) | > 100 µM (inactive) | 9.64 µM (inactive) | 4.99 µM (inactive) | > 100 µM (inactive) | > 100 µM (inactive) | > 100 µM (inactive) | 56.9 µM (inactive) | 67.6 µM (inactive) | 63.5 µM (inactive) | > 100 µM (inactive) | 13 µM (inactive) | > 100 µM (inactive) | > 100 µM (inactive) | 14.3 µM (inactive) | 11.3 µM (inactive) | > 100 µM (inactive) | > 100 µM (inactive) | 7.21 µM (inactive) | 13.8 µM (inactive)
COC(=O)[C@H](COC(C)(C)C)NC(=O)N[C@H](C)c1ccccc1 | > 100 µM (inactive) | > 100 µM (inactive) | > 100 µM (inactive) | > 100 µM (inactive) | > 100 µM (inactive) | > 100 µM (inactive) | > 100 µM (inactive) | > 100 µM (inactive) | > 100 µM (inactive) | > 100 µM (inactive) | > 100 µM (inactive) | > 100 µM (inactive) | > 100 µM (inactive) | > 100 µM (inactive) | > 100 µM (inactive) | > 100 µM (inactive) | > 100 µM (inactive) | > 100 µM (inactive) | > 100 µM (inactive) | > 100 µM (inactive)
CCOC1C=CC(=O)C(CO)O1 (stereo not given) | 14.1 µM (inactive) | 14.3 µM (inactive) | 5.12 µM (inactive) | 6.67 µM (inactive) | 23.3 µM (inactive) | 12.6 µM (inactive) | 11.6 µM (inactive) | 12.9 µM (inactive) | 4.26 µM (inactive) | 1.67 µM (inactive) | 6.73 µM (inactive) | 8.26 µM (inactive) | 13.2 µM (inactive) | 19.4 µM (inactive) | 2.21 µM (inactive) | 14.5 µM (inactive) | 5.86 µM (inactive) | 13.8 µM (inactive) | 1.99 µM (inactive) | 12.4 µM (inactive)
O=CC(I)=C(c1ccccc1)c1ccccc1 | 21.3 µM (inactive) | 18.9 µM (inactive) | 14.2 µM (inactive) | 18.5 µM (inactive) | 24.5 µM (inactive) | 19.6 µM (inactive) | 15.1 µM (inactive) | 19.2 µM (inactive) | 14.8 µM (inactive) | 16.2 µM (inactive) | 13.2 µM (inactive) | 14 µM (inactive) | 18.1 µM (inactive) | 16.9 µM (inactive) | 14.3 µM (inactive) | 17.5 µM (inactive) | 20.4 µM (inactive) | 15.2 µM (inactive) | 6.92 µM (inactive) | 16.5 µM (inactive)
O=C(Nc1sccc1S(=O)(=O)c1ccc(Cl)cc1)c1ccccc1 | > 100 µM (inactive) | > 100 µM (inactive) | > 100 µM (inactive) | > 100 µM (inactive) | > 100 µM (inactive) | > 100 µM (inactive) | > 100 µM (inactive) | > 100 µM (inactive) | > 100 µM (inactive) | > 100 µM (inactive) | > 100 µM (inactive) | > 100 µM (inactive) | 87.9 µM (inactive) | > 100 µM (inactive) | > 100 µM (inactive) | > 100 µM (inactive) | 85.1 µM (inactive) | > 100 µM (inactive) | > 100 µM (inactive) | > 100 µM (inactive)
Oc1ccc(Cl)cc1-c1cc(-c2ccccc2)nc(NCN2CCCCC2)n1 | 7.14 µM (inactive) | > 100 µM (inactive) | 6.68 µM (inactive) | > 100 µM (inactive) | > 100 µM (inactive) | 72.1 µM (inactive) | > 100 µM (inactive) | > 100 µM (inactive) | > 100 µM (inactive) | > 100 µM (inactive) | > 100 µM (inactive) | > 100 µM (inactive) | > 100 µM (inactive) | > 100 µM (inactive) | > 100 µM (inactive) | > 100 µM (inactive) | > 100 µM (inactive) | > 100 µM (inactive) | 4.19 µM (inactive) | > 100 µM (inactive)
Cc1c(C)c(S(=O)(=O)N(CCCN)OCCCN)c(C)c2c1OC(C)(C)CC2 | 13.3 µM (inactive) | 16.7 µM (inactive) | 16.5 µM (inactive) | 15.2 µM (inactive) | 14.8 µM (inactive) | 14.5 µM (inactive) | 17.5 µM (inactive) | 7.78 µM (inactive) | 15.9 µM (inactive) | 14 µM (inactive) | 15 µM (inactive) | 15.1 µM (inactive) | 13.3 µM (inactive) | 17.5 µM (inactive) | 17.5 µM (inactive) | 15.8 µM (inactive) | 13.7 µM (inactive) | 12 µM (inactive) | 17.5 µM (inactive) | 14.8 µM (inactive)
CCOC(=O)c1c(SCCN(CC)CC)n(-c2ccccc2)c(=S)n(-c2ccccc2)c1=O | 4.56 µM (inactive) | 9.59 µM (inactive) | 3.87 µM (inactive) | 1.72 µM (inactive) | 3.32 µM (inactive) | 15.9 µM (inactive) | 7.13 µM (inactive) | 5.16 µM (inactive) | 1.77 µM (inactive) | 1.56 µM (inactive) | 1.84 µM (inactive) | 4.47 µM (inactive) | 17.3 µM (inactive) | 13.4 µM (inactive) | 1.72 µM (inactive) | 6.93 µM (inactive) | 2.28 µM (inactive) | 2.05 µM (inactive) | 0.714 µM (active) | 4.61 µM (inactive)
Cc1c2cc[n+](C)cc2c(C)c2c1sc1ccccc12 | 0.199 µM (active) | 3.01 µM (inactive) | 3.63 µM (inactive) | 2.26 µM (inactive) | 0.069 µM (active) | 0.528 µM (active) | 0.294 µM (active) | 1.12 µM (inactive) | 0.204 µM (active) | 0.661 µM (active) | 1.29 µM (inactive) | 3.85 µM (inactive) | 0.452 µM (active) | 2.9 µM (inactive) | 8.69 µM (inactive) | 0.35 µM (active) | 1.94 µM (inactive) | 1.48 µM (inactive) | 0.246 µM (active) | 1.63 µM (inactive)
COc1ccc(/C=C(/C#N)C(N)=O)c(OC)c1 | > 100 µM (inactive) | > 100 µM (inactive) | 64 µM (inactive) | 31.8 µM (inactive) | > 100 µM (inactive) | > 100 µM (inactive) | > 100 µM (inactive) | > 100 µM (inactive) | > 100 µM (inactive) | > 100 µM (inactive) | > 100 µM (inactive) | > 100 µM (inactive) | > 100 µM (inactive) | 50.4 µM (inactive) | 2.15 µM (inactive) | > 100 µM (inactive) | 89.5 µM (inactive) | 97.3 µM (inactive) | 37.3 µM (inactive) | 42.6 µM (inactive)
FC(F)(F)c1ccccc1N1CCN(c2nc(-c3cccs3)nc3ccc(Br)cc23)CC1 | 48.8 µM (inactive) | 24.4 µM (inactive) | 33.2 µM (inactive) | 63.1 µM (inactive) | 36.5 µM (inactive) | 34.4 µM (inactive) | 50 µM (inactive) | 11.6 µM (inactive) | 38.2 µM (inactive) | 35 µM (inactive) | 10.9 µM (inactive) | 29.5 µM (inactive) | 50.4 µM (inactive) | 24.9 µM (inactive) | 47.8 µM (inactive) | 27.7 µM (inactive) | 37.6 µM (inactive) | 11.7 µM (inactive) | 31.6 µM (inactive) | 23 µM (inactive)
CN(C)c1ccc(/C=N/c2nc3cc4sc(/N=C/c5ccc(N(C)C)cc5)nc4cc3s2)cc1 | 45 µM (inactive) | > 100 µM (inactive) | 30.5 µM (inactive) | 70.1 µM (inactive) | 18.1 µM (inactive) | 28.5 µM (inactive) | 71 µM (inactive) | > 100 µM (inactive) | 49.7 µM (inactive) | 9.98 µM (inactive) | 36.9 µM (inactive) | 34.1 µM (inactive) | 55.7 µM (inactive) | > 100 µM (inactive) | 92.7 µM (inactive) | 5.4 µM (inactive) | > 100 µM (inactive) | > 100 µM (inactive) | 29.4 µM (inactive) | > 100 µM (inactive)
C[N+]1(C)CCc2cc(O)c(O)cc2C1Cc1ccc(O)c(O)c1 (stereo not given) | 39.6 µM (inactive) | > 100 µM (inactive) | 22.4 µM (inactive) | 34 µM (inactive) | 86.9 µM (inactive) | > 100 µM (inactive) | > 100 µM (inactive) | 28 µM (inactive) | 40.6 µM (inactive) | 22.5 µM (inactive) | 69 µM (inactive) | 34.8 µM (inactive) | > 100 µM (inactive) | 1.11 µM (active) | 92 µM (inactive) | 63.7 µM (inactive) | 31.2 µM (inactive) | > 100 µM (inactive) | 34.8 µM (inactive) | 29.9 µM (inactive)
COc1cc2oc(-c3ccc(O)cc3O)c(CC=C(C)C)c(=O)c2c(O)c1/C=C/C(C)C [ARTOCARPIN] | 2.25 µM (inactive) | 4.2 µM (inactive) | 2.1 µM (inactive) | 2.12 µM (inactive) | 3.44 µM (inactive) | 3.24 µM (inactive) | 5.45 µM (inactive) | 3.52 µM (inactive) | 2.14 µM (inactive) | 3.24 µM (inactive) | 2.08 µM (inactive) | 2.51 µM (inactive) | 2.42 µM (inactive) | 6.41 µM (inactive) | 2.95 µM (inactive) | 3.21 µM (inactive) | 6.31 µM (inactive) | 2.79 µM (inactive) | 2.02 µM (inactive) | 3.83 µM (inactive)
